By EC50 is commonly meant the midpoint of the concentration-response curve. The low end stands for an effect from little substance, the high end for a need for much substance.

Sequence of α4β7 integrin (P13612 34-1032): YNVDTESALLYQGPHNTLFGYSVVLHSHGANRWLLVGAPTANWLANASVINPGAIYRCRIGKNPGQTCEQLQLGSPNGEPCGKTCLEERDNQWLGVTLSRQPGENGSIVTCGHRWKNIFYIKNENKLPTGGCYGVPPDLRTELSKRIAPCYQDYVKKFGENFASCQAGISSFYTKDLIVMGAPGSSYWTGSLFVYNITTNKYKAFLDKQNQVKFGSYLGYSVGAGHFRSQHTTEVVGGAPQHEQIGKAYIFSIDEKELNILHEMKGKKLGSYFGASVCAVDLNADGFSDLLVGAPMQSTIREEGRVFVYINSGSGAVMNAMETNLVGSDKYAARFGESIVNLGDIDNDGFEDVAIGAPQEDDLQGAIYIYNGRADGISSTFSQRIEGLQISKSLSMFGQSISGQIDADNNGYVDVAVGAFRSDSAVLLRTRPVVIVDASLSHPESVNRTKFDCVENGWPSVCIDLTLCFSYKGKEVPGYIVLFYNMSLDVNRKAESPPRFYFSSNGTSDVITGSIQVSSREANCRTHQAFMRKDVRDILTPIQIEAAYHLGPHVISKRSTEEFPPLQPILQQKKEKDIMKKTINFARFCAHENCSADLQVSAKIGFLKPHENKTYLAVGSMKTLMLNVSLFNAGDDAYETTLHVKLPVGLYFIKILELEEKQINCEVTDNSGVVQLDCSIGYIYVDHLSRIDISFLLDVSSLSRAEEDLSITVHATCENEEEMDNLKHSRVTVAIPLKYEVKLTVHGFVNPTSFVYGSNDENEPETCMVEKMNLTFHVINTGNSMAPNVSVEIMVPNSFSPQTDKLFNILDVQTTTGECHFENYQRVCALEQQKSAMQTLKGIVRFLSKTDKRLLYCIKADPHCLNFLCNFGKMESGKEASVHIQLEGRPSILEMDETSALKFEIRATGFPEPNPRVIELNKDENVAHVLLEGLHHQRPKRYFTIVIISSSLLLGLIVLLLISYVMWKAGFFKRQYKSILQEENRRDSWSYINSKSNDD
Sequence of α4β7 integrin (P26010 20-798): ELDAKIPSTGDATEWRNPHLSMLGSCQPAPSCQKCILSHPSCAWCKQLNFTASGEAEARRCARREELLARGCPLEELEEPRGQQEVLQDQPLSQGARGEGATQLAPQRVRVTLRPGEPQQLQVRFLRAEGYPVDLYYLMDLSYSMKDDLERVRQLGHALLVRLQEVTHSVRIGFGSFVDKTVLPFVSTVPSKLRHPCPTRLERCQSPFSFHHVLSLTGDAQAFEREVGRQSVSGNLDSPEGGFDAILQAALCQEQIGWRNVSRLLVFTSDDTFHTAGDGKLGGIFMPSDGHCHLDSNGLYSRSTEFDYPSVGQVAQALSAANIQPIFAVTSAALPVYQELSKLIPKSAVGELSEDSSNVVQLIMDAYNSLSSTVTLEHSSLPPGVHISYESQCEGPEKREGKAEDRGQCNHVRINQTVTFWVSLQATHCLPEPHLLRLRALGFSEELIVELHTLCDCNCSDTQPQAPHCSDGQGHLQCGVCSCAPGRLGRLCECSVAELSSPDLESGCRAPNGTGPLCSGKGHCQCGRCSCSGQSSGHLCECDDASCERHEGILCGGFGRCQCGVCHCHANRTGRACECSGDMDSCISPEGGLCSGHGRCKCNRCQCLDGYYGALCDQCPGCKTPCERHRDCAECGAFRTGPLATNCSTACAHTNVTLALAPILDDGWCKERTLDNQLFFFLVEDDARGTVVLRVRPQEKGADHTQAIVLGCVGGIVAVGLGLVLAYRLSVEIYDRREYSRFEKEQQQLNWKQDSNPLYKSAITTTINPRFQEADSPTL

One assay addresses α4β7 integrin (Homo sapiens (Human), UniProt P13612+P26010). The assay can be described thus: α4β7 Integrin Cell Capture Assay. The class given is cell-based. As to conditions: RPMI8866 cells captured on MadCAM-1 extracellular domain-coated plate. The method, then:
α4β7 Integrin Cell Capture Assay
The potency of inhibitors in preventing α4β7 integrin interaction with MadCAM-1 was measured by monitoring the capture of α4β7 integrin expressing cells on a recombinant MadCAM-1 extracellular domain-coated plate. […] The plates were then washed with PBS and blocked with 3% BSA for 2 hours before being washed again.
RPM18866 cells were spun down and re-suspended in assay medium (DMEM+0.5% FBS+0.5 mM MnCl2) at a density of 0.5×10^6 cells/mL. […] The plates were incubated at 37° C. for 1 hour. 50 μL of cells were transferred to the blocked, MadCAM-1-coated plates and incubated for 30 minutes at 37° C. […] The plates were incubated for 90 minutes at room temperature. The plates were then washed 3 times with 70 μL of PBS per well and imaged on a Cellomics ArrayScan instrument. The cells that were bound to the plate were counted and plotted against the compound concentration to determine the EC50 of the test compounds.
Regarding `Cc1cc(N2CCOC[C@@H]2C(F)(F)F)cc(F)c1C(=O)N[C@@H](Cc1ccc(-n2c(=O)c3ccncc3n(C)c2=O)c2ncc(F)cc12)C(=O)O` [Example 426], the midpoint of the response, the EC50, lay at 0.096 nM. `Cn1c(=O)n(-c2ccc(C[C@H](NC(=O)c3c(F)cc(N4CCOC[C@@H]4C(F)(F)F)cc3F)C(=O)O)c3cc(F)cnc23)c(=O)c2cnccc21` [Example 430]: the EC50 stood at 0.469 nM. `Cc1cc(N2CCOC[C@@H]2C(F)(F)F)cc(F)c1C(=O)N[C@@H](Cc1ccc(-n2c(=O)[nH]c3cnccc3c2=O)c2ncccc12)C(=O)O` [Example 421] displayed an EC50 of 0.191 nM. As to `Cc1cc(C(F)(F)F)c(-c2ccc(C[C@H](NC(=O)c3c(F)cc(N4CCO[C@@H](C(F)(F)F)C4)cc3F)C(=O)O)c3cccnc23)c(=O)n1C` [Example 447], the EC50 turned out to be 0.271 nM. Same read-out and setting: then `Cc1cc(N2CCOC[C@@H]2C(F)(F)F)cc(F)c1C(=O)N[C@@H](Cc1ccc(-c2c(Cl)cc(C)n(C)c2=O)c2ncccc12)C(=O)O` [Example 449], with 0.092 nM.

Staying with this assay, now noted: Table 1; capture of α4β7 expressing RPM18866 cells on MadCAM-1 extracellular domain-coated plate.
Regarding `CC[C@@H](Nc1cc(F)c(C(=O)N[C@@H](Cc2ccc(-n3c(=O)c4cc(N(C)C)ccc4n(C)c3=O)c3ncccc23)C(=O)O)c(F)c1)C(F)(F)F` [Example 108, (S)-2-(2,6-difluoro-4-(((R)-1,1,1-trifluorobutan-2-yl)amino)benzamido)-3-(8-(6-(dimethylamino)-1-methyl-2,4-dioxo-1,4-dihydroquinazolin-3(2H)-yl)quinolin-5-yl)propanoic acid], it took 1 nM to reach a half-maximal effect (EC50). Same read-out and setting: the value for `Cc1cc(C(F)(F)F)c(-c2ccc(C[C@H](NC(=O)c3c(F)cc(N[C@H](C)C(F)(F)F)cc3F)C(=O)O)c3cccnc23)c(=O)n1C` [Example 128, (S)-2-(2,6-difluoro-4-(((R)-1,1,1-trifluoropropan-2-yl)amino)benzamido)-3-(8-(1,6-dimethyl-2-oxo-4-(trifluoromethyl)-1,2-dihydropyridin-3-yl)quinolin-5-yl)propanoic acid] was 0.3 nM; that for `COc1cc2ccccc2cc1-c1ccc(C[C@H](NC(=O)c2c(F)cccc2F)C(=O)O)c2cccnc12` [Example 9, (S)-2-(2,6-difluorobenzamido)-3-(8-(3-methoxynaphthalen-2-yl)quinolin-5-yl)propanoic acid] was 25.1 nM; that for `O=C(N[C@@H](Cc1ccc(-c2c(Cl)cncc2Cl)c2ncccc12)C(=O)O)c1c(F)cccc1F` [Example 20, (S)-3-(8-(3,5-dichloropyridin-4-yl)quinolin-5-yl)-2-(2,6-difluorobenzamido)propanoic acid] was 186 nM. Regarding `CC[C@@H](Nc1cc(F)c(C(=O)N[C@@H](Cc2ccc(-c3cc4ccncc4n(C)c3=O)c3ncccc23)C(=O)O)c(F)c1)C(F)(F)F` [Example 110, (S)-2-(2,6-difluoro-4-(((R)-1,1,1-trifluorobutan-2-yl)amino)benzamido)-3-(8-(1-methyl-2-oxo-1,2-dihydro-1,7-naphthyridin-3-yl)quinolin-5-yl)propanoic acid], the EC50 worked out at 0.3 nM. On the same count and under the same terms, then `CS(=O)(=O)Nc1cc(F)c(C(=O)N[C@@H](Cc2ccc(-c3ccc(C#N)cc3Cl)c3ncccc23)C(=O)O)c(F)c1` [Example 45, (S)-3-(8-(2-chloro-4-cyanophenyl)quinolin-5-yl)-2-(2,6-difluoro-4-(methylsulfonamido)benzamido)propanoic acid], with 3.4 nM; and `O=C(N[C@@H](Cc1ccc(-c2ccc(C3CC3)cc2Cl)c2ncccc12)C(=O)O)c1c(F)cc(NS(=O)(=O)c2ccc(-c3ccnc(F)c3)cc2)cc1F` [Example 54, (S)-3-(8-(2-chloro-4-cyclopropylphenyl)quinolin-5-yl)-2-(2,6-difluoro-4-((4-(2-fluoropyridin-4-yl)phenyl)sulfonamido)benzamido)propanoic acid], with 37.4 nM; and `CN(C)c1cccnc1-c1ccc(C[C@H](NC(=O)c2c(F)cc(N3CCOC[C@@H]3C(F)(F)F)cc2F)C(=O)O)c2cccnc12` [Example 101, (S)-2-(2,6-difluoro-4-((R)-3-(trifluoromethyl)morpholino)benzamido)-3-(8-(3-(dimethylamino)pyridin-2-yl)quinolin-5-yl)propanoic acid], with 4.1 nM. Turning to `Cc1cc(C(F)(F)F)c(-c2ccc(C[C@H](NC(=O)c3c(F)cc(N4CCCC[C@@H]4C(F)(F)F)cc3F)C(=O)O)c3cccnc23)c(=O)n1C` [Example 129, (S)-2-(2,6-difluoro-4-((R)-2-(trifluoromethyl)piperidin-1-yl)benzamido)-3-(8-(1,6-dimethyl-2-oxo-4-(trifluoromethyl)-1,2-dihydropyridin-3-yl)quinolin-5-yl)propanoic acid], the EC50 came to 0.7 nM. Same read-out and setting: then `COc1cc(C)n(C)c(=O)c1-c1ccc(C[C@H](NC(=O)c2c(F)cc(N3CCOC[C@@H]3C(F)(F)F)cc2F)C(=O)O)c2cccnc12` [Example 102, (S)-2-(2,6-difluoro-4-((R)-3-(trifluoromethyl)morpholino)benzamido)-3-(8-(4-methoxy-1,6-dimethyl-2-oxo-1,2-dihydropyridin-3-yl)quinolin-5-yl)propanoic acid], with 0.3 nM; and `COc1c(F)cccc1-c1ccc(C[C@H](NC(=O)c2c(F)cc(NS(=O)(=O)c3ccc(-c4ccnc(F)c4)cc3)cc2F)C(=O)O)c2cccnc12` [Example 60, (S)-2-(2,6-difluoro-4-((4-(2-fluoropyridin-4-yl)phenyl)sulfonamido)benzamido)-3-(8-(3-fluoro-2-methoxyphenyl)quinolin-5-yl)propanoic acid], with 3 nM. Same read-out and setting: then `CC[C@@H](Nc1cc(F)c(C(=O)N[C@@H](Cc2ccc(-c3nn(C)c(=O)cc3C)c3ncccc23)C(=O)O)c(F)c1)C(F)(F)F` [Example 119, (S)-2-(2,6-difluoro-4-(((R)-1,1,1-trifluorobutan-2-yl)amino)benzamido)-3-(8-(1,4-dimethyl-6-oxo-1,6-dihydropyridazin-3-yl)quinolin-5-yl)propanoic acid], with 20.5 nM. On the same count and under the same terms, the value for `CC[C@@H](Nc1cc(F)c(C(=O)N[C@@H](Cc2ccc(-c3c(C(F)(F)F)cc(C)n(C)c3=O)c3ncccc23)C(=O)O)c(F)c1)C(F)(F)F` (single isomer, unassigned) [Example 107] was 0.2 nM.

Staying with this assay, now noted: Table 2; capture of α4β7 expressing RPM18866 cells on MadCAM-1 extracellular domain-coated plate.
As for `Cc1c(Cl)cn(C)c(=O)c1-c1ccc(C[C@H](NC(=O)c2c(F)cc(N3CCOC[C@@H]3C(F)(F)F)cc2F)C(=O)O)c2cccnc12` [Example 165], the EC50 is 0.4 nM.

Compound `N#Cc1ccc(-c2ccc(C[C@H](NC(=O)c3c(Cl)cc4[nH]c(Cc5ccccc5)cc4c3Cl)C(=O)O)c3cccnc23)c(Cl)c1` [Example 240] gave an EC50 of 79.2 nM. Against the preceding compound, the EC50 is about 200-fold higher.

With `N#Cc1ccc(-c2ccc(C[C@H](NC(=O)c3c(F)cc(C4=CCOCC4)cc3F)C(=O)O)c3cccnc23)c(Cl)c1` [Example 150], the EC50 came to 43.6 nM. Same read-out and setting: then `CC(=O)c1cc(F)c(C(=O)N[C@@H](Cc2ccc(-c3ccc(C#N)cc3Cl)c3ncccc23)C(=O)O)c(F)c1` [Example 241], with 80.1 nM; and `CC[C@@H](Nc1cc(F)c(C(=O)N[C@@H](Cc2ccc(-c3ncc4c(n3)CCC4)c3ncccc23)C(=O)O)c(F)c1)C(F)(F)F` [Example 311], with 12.3 nM. Still for that read-out and setting: then `CC[C@@H](Nc1cc(F)c(C(=O)N[C@@H](Cc2ccc(-c3nccc(C)c3Cl)c3ncccc23)C(=O)O)c(F)c1)C(F)(F)F` [Example 325], with 18.8 nM; and `O=C(N[C@@H](Cc1ccc(-c2cc(F)c(F)cc2OC2CCC2)c2ncccc12)C(=O)O)c1c(F)cccc1F` [Example 177], with 28 nM. Still for that read-out and setting: the value for `CC[C@@H](Nc1cc(F)c(C(=O)N[C@@H](Cc2ccc(-c3c(C)c(F)cn(C)c3=O)c3ncccc23)C(=O)O)c(F)c1)C(F)(F)F` [Example 199] was 1.5 nM; that for `CC[C@@H](Nc1cc(F)c(C(=O)N[C@@H](Cc2ccc(-c3c(C(F)(F)F)cc(C4CC4)n(C)c3=O)c3ncccc23)C(=O)O)c(F)c1)C(F)(F)F` [Example 163] was 0.4 nM. With `O=C(N[C@@H](Cc1ccc(-c2ncc3c(n2)CCC3)c2ncccc12)C(=O)O)c1c(F)cc(N2CCOC[C@@H]2C(F)(F)F)cc1F` [Example 299], a half-maximal effect (EC50) was put at 8.2 nM. Against the preceding compound, the EC50 is about 20-fold higher.

The compound `Cc1nc(-c2ccc(C[C@H](NC(=O)c3c(F)cc(N4CCOC[C@@H]4C(F)(F)F)cc3F)C(=O)O)c3cccnc23)nc2cc(F)ccc12` [Example 206] gave an EC50 of 1.7 nM. Still for that read-out and setting: the value for `Cn1ccc2c(Cl)c(C(=O)N[C@@H](Cc3ccc(-c4ccc(C#N)cc4Cl)c4ncccc34)C(=O)O)c(Cl)cc21` [Example 285] was 46.2 nM; that for `CCc1nc(-c2ccc(C[C@H](NC(=O)c3c(F)cc(N[C@H](CC)C(F)(F)F)cc3F)C(=O)O)c3cccnc23)c(=O)n(C)c1CC` [Example 176] was 0.9 nM; that for `CCC(CC)Nc1cc(F)c(C(=O)N[C@@H](Cc2ccc(-c3c(C(F)(F)F)cc(C)n(C)c3=O)c3ncccc23)C(=O)O)c(F)c1` [Example 272] was 4.5 nM.

`O=C(N[C@@H](Cc1ccc(NC(=O)c2c(Cl)cccc2Cl)c2ncccc12)C(=O)O)c1c(F)cccc1F` [Example 239] gave an EC50 of 77.9 nM. Same read-out and setting: the value for `CCOCc1cc(OC)c(-c2ccc(C[C@H](NC(=O)c3c(F)cc4[nH]c(Cc5ccccc5)cc4c3F)C(=O)O)c3cccnc23)c(OC)c1` [Example 335] was 25.1 nM.
